Source: patent US7235679B2, “Crystals of a vitamin D derivative and a method for the preparation thereof” (Chugai Seiyaku Kabushiki Kaisha, priority 1996, dated 2007)

Tests used:
Format in all cases: physicochemical
[1] = Stability test of ED-71: purity measurement using reverse phase HPLC; conditions: 265 nm
Description: (§1) Amorphous and crystalline ED-71 compounds were tested for stability at 10, 25 and […]. To estimate the stability, HPLC quantitative assay and absorbance and purity measurements were utilized. The purity was expressed as peak area ratio in percentage in HPLC (% P.A.R.). The test was carried out by using the following procedures:
(§2) About 2 mg portions of each of the amorphous and crystalline samples are precisely weighed into transparent 10 ml test tubes each having screw cap, individually.
(§3) The test tubes are purged with argon using a vacuum desiccator and a glove box. This purging procedure is not applied to the test tubes indicated as “1 M (air)” in the tables below.
(§4) The test tubes in groups are fixed in thermostatic baths which are respectively controlled at the above temperatures and allowed to stand in the dark. After one (1 W) or two (2 W) weeks or one month (1 M), the test tubes are removed from the baths and subjected to the following assay and measurements:
HPLC is carried out using 25 μl of the sample solution as prepared in “HPLC quantitative assay” above. • HPLC conditions used: • Column: Inertsil ODS-2 (5×250 mm) • Mobile phase: acetonitrile/water mixture (55/45) • Flow rate: 1 ml/min • Detection: at UV 265 and 220 nm.

[2] = Stability test of ED-71: absorbance measurement at 265 nm (E 1%); conditions: absorbance at 265 nm
Description: as §1, §2, §3, §4
1 ml of the sample solution as prepared in “HPLC quantitative assay” above is diluted with absolute ethanol to give a whole volume of 10 ml and this diluted solution is then measured for the absorbance at 265 nm using a ultraviolet spectrophotometer. The absorbance is converted into E 1% value which is derived from Lambert-Beer Law and the conversion is made according to the following equation: E1%=A/cb wherein A is absorbance, c is concentration in g/100 ml and b is length of optical path in cm across the test solution, which is commonly 1. (4) Purity Measurement

[3] = Stability test of ED-71: purity measurement using normal phase HPLC; conditions: 265 nm
Description: as §1, §2, §3, §4
1 ml of the sample solution as prepared in “HPLC quantitative assay” above is dried in vacuo to remove the solvent (absolute ethanol). The residue is dissolved in 1 ml of methylene chloride. HPLC assay is carried out using 25 μl of this solution. • HPLC conditions used: • Column: YMC A-004SIL (4.6×300 mm) • Mobile phase: methylene chloride/methanol mixture (96/4) • Flow rate: 1.8 ml/min • Detection: at UV 265 nm.

With `C=C1/C(=C\C=C2/CCC[C@]3(C)[C@@H]([C@H](C)CCCC(C)(C)O)CC[C@@H]23)C[C@@H](O)[C@@H](OCCCO)[C@@H]1O` [Crys., 1α,25-dihydroxy-2β-(3-hydroxypropoxy)vitamin D3] the “Purity Measurement Using Reverse Phase HPLC, Pre Form peak” value ([1]; 25° C., time 0) was 0.36 % P.A.R, the “Purity Measurement Using Reverse Phase HPLC, ED-71 peak” value ([1]; 40° C., 1 W, argon, dark) was 99.40 % P.A.R and the “Purity Measurement Using Reverse Phase HPLC, Other peaks” value ([1]; 40° C., 1 W, argon, dark) was 0.31 % P.A.R. The “Purity Measurement Using Reverse Phase HPLC, Pre Form peak” value ([1]; 40° C., 1 W, argon, dark) was 0.29 % P.A.R, the “Purity Measurement Using Reverse Phase HPLC, ED-71 peak” value ([1]; 40° C., 2 W, argon, dark) was 98.75 % P.A.R and the “Purity Measurement Using Reverse Phase HPLC, Other peaks” value ([1]; 40° C., 2 W, argon, dark) was 0.40 % P.A.R. The “Purity Measurement Using Reverse Phase HPLC, Pre Form peak” value ([1]; 40° C., 2 W, argon, dark) was 0.85 % P.A.R, the “Purity Measurement Using Reverse Phase HPLC, ED-71 peak” value ([1]; 40° C., time 0) was 99.04 % P.A.R and the “Purity Measurement Using Reverse Phase HPLC, Other peaks” value ([1]; 40° C., time 0) was 0.60 % P.A.R. The “Purity Measurement Using Reverse Phase HPLC, Pre Form peak” value ([1]; 40° C., time 0) was 0.36 % P.A.R, the “E 1%” value ([2]; 10° C., 1 M (air), dark) was 341.7 and the “E 1%” value ([2]; 10° C., 1 M, argon, dark) was 342.7. For the same compound, the “E 1%” value ([2]; 10° C., 2 W, argon, dark) was 343.8, the “E 1%” value ([2]; 10° C., time 0) was 359.2 and the “E 1%” value ([2]; 25° C., 1 W, argon, dark) was 349.5. For the same compound, the “E 1%” value ([2]; 25° C., 2 W, argon, dark) was 341.6, the “E 1%” value ([2]; 25° C., time 0) was 359.2 and the “E 1%” value ([2]; 40° C., 1 W, argon, dark) was 349.8. For the same compound, the “E 1%” value ([2]; 40° C., 2 W, argon, dark) was 348.7, the “E 1%” value ([2]; 40° C., time 0) was 359.2 and the “Purity Measurement Using Normal Phase HPLC, ED-71 peak” value ([3]; 10° C., 1 M (air), dark) was 98.88 % P.A.R. The “Purity Measurement Using Normal Phase HPLC, Other peaks” value ([3]; 10° C., 1 M (air), dark) was 0.46 % P.A.R, the “Purity Measurement Using Normal Phase HPLC, Pre Form peak” value ([3]; 10° C., 1 M (air), dark) was 0.66 % P.A.R and the “Purity Measurement Using Normal Phase HPLC, ED-71 peak” value ([3]; 10° C., 1 M, argon, dark) was 98.91 % P.A.R. The “Purity Measurement Using Normal Phase HPLC, Other peaks” value ([3]; 10° C., 1 M, argon, dark) was 0.44 % P.A.R, the “Purity Measurement Using Normal Phase HPLC, Pre Form peak” value ([3]; 10° C., 1 M, argon, dark) was 0.65 % P.A.R and the “Purity Measurement Using Normal Phase HPLC, ED-71 peak” value ([3]; 10° C., 2 W, argon, dark) was 99.06 % P.A.R. For the same compound, the “Purity Measurement Using Normal Phase HPLC, Other peaks” value ([3]; 10° C., 2 W, argon, dark) was 0.27 % P.A.R, the “Purity Measurement Using Normal Phase HPLC, Pre Form peak” value ([3]; 10° C., 2 W, argon, dark) was 0.66 % P.A.R and the “Purity Measurement Using Normal Phase HPLC, ED-71 peak” value ([3]; 10° C., time 0) was 99.15 % P.A.R. For the same compound, the “Purity Measurement Using Normal Phase HPLC, Other peaks” value ([3]; 10° C., time 0) was 0.63 % P.A.R, the “Purity Measurement Using Normal Phase HPLC, Pre Form peak” value ([3]; 10° C., time 0) was 0.21 % P.A.R and the “Purity Measurement Using Normal Phase HPLC, ED-71 peak” value ([3]; 25° C., 1 W, argon, dark) was 99.56 % P.A.R. The “Purity Measurement Using Normal Phase HPLC, Other peaks” value ([3]; 25° C., 1 W, argon, dark) was 0.30 % P.A.R, the “Purity Measurement Using Normal Phase HPLC, Pre Form peak” value ([3]; 25° C., 1 W, argon, dark) was 0.14 % P.A.R and the “Purity Measurement Using Normal Phase HPLC, ED-71 peak” value ([3]; 25° C., 2 W, argon, dark) was 98.95 % P.A.R. The “Purity Measurement Using Normal Phase HPLC, Other peaks” value ([3]; 25° C., 2 W, argon, dark) was 0.38 % P.A.R, the “Purity Measurement Using Normal Phase HPLC, Pre Form peak” value ([3]; 25° C., 2 W, argon, dark) was 0.67 % P.A.R and the “Purity Measurement Using Normal Phase HPLC, ED-71 peak” value ([3]; 25° C., time 0) was 99.15 % P.A.R. The “Purity Measurement Using Normal Phase HPLC, Other peaks” value ([3]; 25° C., time 0) was 0.63 % P.A.R, the “Purity Measurement Using Normal Phase HPLC, Pre Form peak” value ([3]; 25° C., time 0) was 0.21 % P.A.R and the “Purity Measurement Using Normal Phase HPLC, ED-71 peak” value ([3]; 40° C., 1 W, argon, dark) was 99.55 % P.A.R. For the same compound, the “Purity Measurement Using Normal Phase HPLC, Other peaks” value ([3]; 40° C., 1 W, argon, dark) was 0.31 % P.A.R, the “Purity Measurement Using Normal Phase HPLC, Pre Form peak” value ([3]; 40° C., 1 W, argon, dark) was 0.14 % P.A.R and the “Purity Measurement Using Normal Phase HPLC, ED-71 peak” value ([3]; 40° C., 2 W, argon, dark) was 98.92 % P.A.R. For the same compound, the “Purity Measurement Using Normal Phase HPLC, Other peaks” value ([3]; 40° C., 2 W, argon, dark) was 0.41 % P.A.R, the “Purity Measurement Using Normal Phase HPLC, Pre Form peak” value ([3]; 40° C., 2 W, argon, dark) was 0.67 % P.A.R and the “Purity Measurement Using Normal Phase HPLC, ED-71 peak” value ([3]; 40° C., time 0) was 99.15 % P.A.R. For the same compound, the “Purity Measurement Using Normal Phase HPLC, Other peaks” value ([3]; 40° C., time 0) was 0.63 % P.A.R and the “Purity Measurement Using Normal Phase HPLC, Pre Form peak” value ([3]; 40° C., time 0) was 0.21 % P.A.R.
